Target: T1, pY705-STAT3 in PBMC (Homo sapiens, UniProt P40763)
T1 construct: Cryopreserved Peripheral Blood Mononuclear Cells (PBMC) are from AllCells; host or cells: cryopreserved PBMC
Experiment: MSD-pSTAT-PBMC Assay (pSTAT3, IL-6 stimulated)
Assay type: cell-based
Details: PBMC, compound 3 hrs, then 10 ng/mL IL-6 for 10 min; Table 115; read-out: STAT3
Source text: Cryopreserved Peripheral Blood Mononuclear Cells (PBMC) are from AllCells. Recombinant Human IL-4 and IL-6 are from Peprotech. Mouse monoclonal anti-STAT3 antibody, rabbit monoclonal anti-pY705-STAT3 antibody, rabbit monoclonal Anti-pY641-STAT6 antibody, and lysis buffer are from Cell Signaling Technology (CST). Mouse monoclonal anti-STAT6 antibody is from BioLegend. Assay plates, blocker, and anti-rabbit secondary antibody are from Meso Scale Discovery (MSD).
Cyropreserved PBMCs were thawed out and allowed to recover overnight in IMDM+10% heat-inactivated FBS prior to plating 50,000 (STAT3) or 25,000 (STAT6) cells per well in 96-well U-bottom tissue culture plates. Cells were treated with compound for 3 hrs, then stimulated with 10 ng/mL IL-6 (STAT3) or 1 ng/mL IL-4 (STAT6) for 10 min. Cells were then spun down and washed with ice-cold PBS prior to lysing the cell pellet with 1× lysis buffer (CST) with 1× HALT protease and phosphatase inhibitor cocktail (Thermo). Lysates were transferred to and incubated overnight at 4° C. with shaking in QuickPlex 96-well high bind assay plates (MSD) pre-coated overnight with 30 μL per well of 0.6 μg/mL mouse monoclonal anti-STAT3 antibody (STAT3) or 2 μg/mL mouse monoclonal anti-STAT6 antibody (STAT6) in 1× PBS, and pre-blocked for 1 hour with 3% Blocker-A (MSD). Captured protein in the assay plates were then washed and probed with 25 μL per well of […] rabbit monoclonal anti-pY705-STAT3 antibody (STAT3) or 0.18 μg/ml rabbit monoclonal Anti-pY641-STAT6 antibody (STAT6) in 1% Blocker-A for 1 hour at room temperature with shaking, then washed and probed with 25 ul per well of 1 ug/ml Sulfo-TAG Labeled Goat Anti-Rabbit Antibody (MSD) in 1% Blocker-A for 1 hour at room temperature with shaking. Assay plates were then washed and 150 μL of 1× Read Buffer-T (MSD) was added to each well prior to reading on an SQ120 MSD Plate Reader. Assay signal from each sample was subtracted by the signal from unstimulated control wells and normalized to DMSO control wells. IC50 values were calculated using Graph Pad Prism Dose-Response Nonlinear Regression with variable slope. For both pSTAT3 and pSTAT6 A=≤100 nM; B 100-1000 nM; C=>1000-3000 nM; D=>3 μM; and NT=Not Tested.

T1 sequence (P40763 whole entry): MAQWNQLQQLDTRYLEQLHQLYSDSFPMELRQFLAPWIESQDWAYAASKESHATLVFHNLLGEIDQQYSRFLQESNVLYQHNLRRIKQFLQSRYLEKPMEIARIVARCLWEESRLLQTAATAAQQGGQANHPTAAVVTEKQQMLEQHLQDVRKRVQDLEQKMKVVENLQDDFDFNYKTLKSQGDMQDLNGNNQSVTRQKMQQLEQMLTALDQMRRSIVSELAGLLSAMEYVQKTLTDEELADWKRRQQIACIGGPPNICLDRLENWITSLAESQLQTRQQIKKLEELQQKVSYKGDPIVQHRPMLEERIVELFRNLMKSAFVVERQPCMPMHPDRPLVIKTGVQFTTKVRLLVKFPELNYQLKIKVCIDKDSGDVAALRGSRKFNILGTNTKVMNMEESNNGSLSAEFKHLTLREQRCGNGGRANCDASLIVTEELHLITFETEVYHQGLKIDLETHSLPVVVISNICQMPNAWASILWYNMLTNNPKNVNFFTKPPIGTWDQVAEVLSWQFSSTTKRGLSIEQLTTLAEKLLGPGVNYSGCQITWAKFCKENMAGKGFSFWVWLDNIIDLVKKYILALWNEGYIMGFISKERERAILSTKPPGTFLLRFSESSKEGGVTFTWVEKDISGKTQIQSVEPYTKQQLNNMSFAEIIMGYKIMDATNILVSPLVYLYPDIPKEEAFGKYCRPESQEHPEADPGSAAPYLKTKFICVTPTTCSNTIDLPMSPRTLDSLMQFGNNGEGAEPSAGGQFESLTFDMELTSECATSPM

SMILES | IC50 [nM]
CCCOC(=O)[C@H](C)N[P@@](=O)(Oc1ccccc1)[C@H](F)c1ccc2sc(C(=O)N[C@H]3C[C@@H](C)C[C@H]4CC[C@@H](C(=O)N5CC(c6cnccc6C)C5)N4C3=O)cc2c1 (single isomer, unassigned) [Compound 1001] | < 100
COc1ccncc1C1CN(C(=O)[C@@H]2CC[C@@H]3CCC[C@H](NC(=O)c4cc5cc([C@H](F)[P@@](=O)(N[C@@H](C)C(=O)OC(C)C)Oc6ccccc6)ccc5s4)C(=O)N32)C1 (single isomer, unassigned) [Compound 1023] | 100 to 1000
CCCOC(=O)[C@H](C)N[P@@](=O)(Oc1ccccc1)[C@@H](F)c1ccc2sc(C(=O)N[C@H]3CCC[C@H]4CC[C@@H](C(=O)N5CC(c6cnccc6C)C5)N4C3=O)cc2c1 (single isomer, unassigned) [Compound 1027] | < 100
CCCOC(=O)[C@H](C)N[P@@](=O)(Oc1ccccc1)[C@@H](F)c1ccc2sc(C(=O)N[C@H]3CCC[C@H]4CC[C@@H](C(=O)N5CC(c6cnccc6OC)C5)N4C3=O)cc2c1 (single isomer, unassigned) [Compound 1032] | < 100
CCCOC(=O)[C@H](C)N[P@](=O)(Oc1ccccc1)[C@@H](F)c1ccc2sc(C(=O)N[C@H]3C[C@@H](C)C[C@H]4CC[C@@H](C(=O)N5CC(c6cnccc6OC(C)C)C5)N4C3=O)cc2c1 (single isomer, unassigned) [Compound 1033] | < 100
CCCOC(=O)[C@H](C)N[P@](=O)(Oc1ccccc1)[C@@H](F)c1ccc2sc(C(=O)N[C@H]3C[C@@H](C)C[C@H]4CC[C@@H](C(=O)N5CC(c6cnccc6OC(C)C)C5)N4C3=O)cc2c1 (single isomer, unassigned) [Compound 1034] | < 100
CCCOC(=O)[C@H](C)N[P@](=O)(Oc1ccccc1)[C@@H](F)c1ccc2sc(C(=O)N[C@H]3CCC[C@H]4CC[C@@H](C(=O)N5CC(c6cnccc6C)C5)N4C3=O)cc2c1 (single isomer, unassigned) [Compound 1035] | < 100
CCCOC(=O)[C@H](C)N[P@@](=O)(Oc1ccccc1)[C@@H](F)c1ccc2sc(C(=O)N[C@H]3C[C@@H](C)C[C@H]4CC[C@@H](C(=O)N5CC(c6cnccc6C)C5)N4C3=O)cc2c1 (single isomer, unassigned) [Compound 1036] | < 100
CCCOC(=O)[C@H](C)N[P@@](=O)(Oc1ccccc1)[C@@H](F)c1ccc2sc(C(=O)N[C@H]3C[C@@H](C)C[C@H]4CC[C@@H](C(=O)N5CC(c6cnccc6C)C5)N4C3=O)cc2c1 (single isomer, unassigned) [Compound 1037] | < 100
CCCOC(=O)[C@H](C)N[P@@](=O)(Oc1ccccc1)[C@@H](F)c1ccc2sc(C(=O)N[C@H]3CCC[C@H]4CC[C@@H](C(=O)N5CC(c6cnccc6OC)C5)N4C3=O)cc2c1 (single isomer, unassigned) [Compound 1039] | < 100
CCCOC(=O)[C@H](C)N[P@@](=O)(Oc1ccccc1)[C@@H](F)c1ccc2sc(C(=O)N[C@H]3C[C@H](C)C[C@H]4CC[C@@H](C(=O)N5CC(c6cnccc6OC)C5)N4C3=O)cc2c1 (single isomer, unassigned) [Compound 1040] | < 100
CCCOC(=O)[C@H](C)N[P@@](=O)(Oc1ccccc1)[C@@H](F)c1ccc2sc(C(=O)N[C@H]3C[C@H](C)C[C@H]4CC[C@@H](C(=O)N5CC(c6cnccc6OC)C5)N4C3=O)cc2c1 (single isomer, unassigned) [Compound 1041] | < 100
CCCOC(=O)[C@H](C)N[P@](=O)(Oc1ccccc1)[C@H](F)c1ccc2sc(C(=O)N[C@H]3CCC[C@H]4CC[C@@H](C(=O)N5CC(c6cnccc6N6CCOCC6)C5)N4C3=O)cc2c1 (single isomer, unassigned) [Compound 1044] | < 100
CCCOC(=O)[C@H](C)N[P@](=O)(Oc1ccccc1)[C@@H](F)c1ccc2sc(C(=O)N[C@H]3CCC[C@H]4CC[C@@H](C(=O)N5CC(c6cnccc6N6CCOCC6)C5)N4C3=O)cc2c1 (single isomer, unassigned) [Compound 1046] | 100 to 1000
